# Results taken from patent US20200199102A1, “COMPOUNDS THAT PARTICIPATE IN COOPERATIVE BINDING AND USES THEREOF” (Revolution Medicines, Inc., priority 2017, published 2020).
# Where a SMILES comes first, the peptide text is derived from it. [ ]: non-standard residue; d: D form. MeBmt = C/C=C/C[C@@H](C)[C@@H](O)[C@H](NC)C(=O)O; NMeY = CN[C@@H](Cc1ccc(O)cc1)C(=O)O; NMeF = CN[C@@H](Cc1ccccc1)C(=O)O; NMeI = CC[C@H](C)[C@H](NC)C(=O)O; NMeT = CN[C@H](C(=O)O)[C@@H](C)O; NMeL = CN[C@@H](CC(C)C)C(=O)O; dNMeV = CN[C@@H](C(=O)O)C(C)C; NMeNva = CCC[C@H](NC)C(=O)O; NMeV = CN[C@H](C(=O)O)C(C)C; NMeA = CN[C@@H](C)C(=O)O; dNMeA = CN[C@H](C)C(=O)O; Abu = CC[C@H](N)C(=O)O; Sar = CNCC(=O)O
# Target: T1, Cyclophilin A (Homo sapiens, UniProt P62937)
# T1 construct: made in house
# T1 sequence (P62937 whole entry, species assumed): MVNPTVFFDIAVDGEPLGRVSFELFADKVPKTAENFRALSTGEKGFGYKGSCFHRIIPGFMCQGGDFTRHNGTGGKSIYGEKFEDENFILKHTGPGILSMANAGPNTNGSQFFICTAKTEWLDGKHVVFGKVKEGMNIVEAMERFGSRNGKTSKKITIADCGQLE
# Experiment: AlphaLISA inhibition of binding of biotinylated Cyclosporin A to FLAG tagged Cyclophilin A
# Settings: for % signal: AlphaLISA signal; for % signal / % inhibition of CsA binding to Cyclophilin A: test concentration not given; for IC50: read-out: IC50 value of CsA binding to Cyclophilin A
# Excerpt: The binding of compounds of the invention to Cyclophilin A can be determined using the following protocol.
# This protocol utilizes Perkin Elmers AlphaLISA technology platform to detect cyclosporine analogues by measuring the inhibition of binding of biotinylated Cyclosporin A to FLAG tagged Cyclophilin A.
# 10×TBST Buffer (Boston BioProducts IBB-181), Biotinylated Cyclosporin A (in-house), FLAG tagged Cyclophilin A (in-house); anti-FLAG Donor beads (PerkinElmer AS103) and Streptavidin Acceptor beads (PerkinElmer AL125); Compounds in DMSO (in-house), Cyclosporin A (LC Labs Cat #C-6000).
# Add 20 uL of 6 nM Biotinylated CsA working stock to each well of the 96-well plate. Add 1 uL of test compound (100% DMSO) to each well of the plate using the Janus MTD head and P20 tips (except control wells). Add 1 uL of DMSO to negative control wells and 1 uL of 500 uM Cyclosporin A solution to positive control wells. In the dark, add 20 uL of combined Donor/Acceptor beads to each well. Incubate in the dark for 30 minutes at room temperature. In the dark, add 10 uL of 25 nM Flag tagged CypA working stock to each well. Incubate in the dark for 60 minutes at room temperature. Protect plate from light until reading on Biotek Synergy2 Plate Reader; Alphalisa 96-well protocol (680 excitation/615 emission).
SMILES,% signal [%],IC50 [nM],% inhibition of CsA binding to Cyclophilin A [%]
C/C=C/C[C@@H](C)[C@@H](O)[C@H]1C(=O)N[C@@H](CC)C(=O)N(C)CC(=O)N(C)[C@@H]([C@@H](C)O)C(=O)N[C@@H](C(C)C)C(=O)N(C)CC(=O)N[C@@H](C)C(=O)N[C@H](C)C(=O)N(C)[C@@H](CC(C)C)C(=O)N(C)[C@@H](CC(C)C)C(=O)N(C)[C@@H](C(C)C)C(=O)N1C [Compound C31] (cyclo([MeBmt][Abu][Sar][NMeT]V[Sar]A[dA][NMeL][NMeL][NMeV])),−0.03,< 2000,100.03
C/C=C/C[C@@H](C)[C@@H](O)[C@H]1C(=O)N[C@@H](CC)C(=O)N(C)CC(=O)N(C)[C@@H](Cc2ccc(O)cc2)C(=O)N[C@@H](C(C)C)C(=O)N(C)CC(=O)N[C@@H](C)C(=O)N[C@H](C)C(=O)N(C)[C@@H](CC(C)C)C(=O)N(C)[C@@H](CC(C)C)C(=O)N(C)[C@@H](C(C)C)C(=O)N1C [Compound C32] (cyclo([MeBmt][Abu][Sar][NMeY]V[Sar]A[dA][NMeL][NMeL][NMeV])),0.14,< 2000,99.86
C/C=C/C[C@@H](C)[C@@H](O)[C@H]1C(=O)N[C@@H](CC)C(=O)N(C)CC(=O)N(C)[C@@H]([C@@H](C)CC)C(=O)N[C@@H](C(C)C)C(=O)N(C)[C@@H](CC(C)C)C(=O)N[C@@H](CC(C)C)C(=O)N[C@H](C)C(=O)N(C)[C@@H](CC(C)C)C(=O)N(C)[C@@H](CC(C)C)C(=O)N(C)[C@@H](C(C)C)C(=O)N1C [Compound C45] (cyclo([MeBmt][Abu][Sar][NMeI]V[NMeL]L[dA][NMeL][NMeL][NMeV])),−0.03,< 2000,100.03
C/C=C/C[C@@H](C)[C@@H](O)[C@H]1C(=O)N[C@@H](CC)C(=O)N(C)CC(=O)N(C)[C@@H](C)C(=O)N[C@@H](C(C)C)C(=O)N(C)[C@@H](CC(C)C)C(=O)N[C@@H](CC(C)C)C(=O)N[C@H](C)C(=O)N(C)[C@@H](CC(C)C)C(=O)N(C)[C@@H](CC(C)C)C(=O)N(C)[C@@H](C(C)C)C(=O)N1C [Compound C46] (cyclo([MeBmt][Abu][Sar][NMeA]V[NMeL]L[dA][NMeL][NMeL][NMeV])),1.04,< 2000,98.96
C/C=C/C[C@@H](C)[C@@H](O)[C@H]1C(=O)N[C@@H](CC)C(=O)N(C)CC(=O)N(C)[C@@H](Cc2ccccc2)C(=O)N[C@@H](C(C)C)C(=O)N(C)[C@@H](CC(C)C)C(=O)N[C@@H](CC(C)C)C(=O)N[C@H](C)C(=O)N(C)[C@@H](CC(C)C)C(=O)N(C)[C@@H](CC(C)C)C(=O)N(C)[C@@H](C(C)C)C(=O)N1C [Compound C48] (cyclo([MeBmt][Abu][Sar][NMeF]V[NMeL]L[dA][NMeL][NMeL][NMeV])),15.72,< 2000,84.28
C/C=C/C[C@@H](C)[C@@H](O)[C@H]1C(=O)N[C@@H](CC)C(=O)N(C)CC(=O)N(C)CC(=O)N[C@@H](C(C)C)C(=O)N(C)[C@@H](CC(C)C)C(=O)N[C@@H](CC(C)C)C(=O)N[C@H](C)C(=O)N(C)[C@@H](CC(C)C)C(=O)N(C)[C@@H](CC(C)C)C(=O)N(C)[C@@H](C(C)C)C(=O)N1C [Compound C49] (cyclo([MeBmt][Abu][Sar][Sar]V[NMeL]L[dA][NMeL][NMeL][NMeV])),19.41,< 2000,80.59
C/C=C/C[C@@H](C)[C@@H](O)[C@H]1C(=O)N[C@@H](CC)C(=O)N(C)CC(=O)N(C)[C@@H](CC(C)C)C(=O)N[C@@H](C(C)C)C(=O)N(C)[C@@H](CC(C)C)C(=O)N[C@@H](CC(C)C)C(=O)N[C@H](C)C(=O)N(C)[C@@H](CC(C)C)C(=O)N(C)[C@@H](CC(C)C)C(=O)N(C)[C@@H](C(C)C)C(=O)N1C [Compound C50],6.06,< 2000,93.94
C/C=C/C[C@@H](C)[C@@H](O)[C@H]1C(=O)N[C@@H](CC)C(=O)N(C)CC(=O)N(C)[C@@H]([C@@H](C)O)C(=O)N[C@@H](C(C)C)C(=O)N(C)[C@@H](CC(C)C)C(=O)N[C@@H](CC(C)C)C(=O)N[C@H](C)C(=O)N(C)[C@@H](CC(C)C)C(=O)N(C)[C@@H](CC(C)C)C(=O)N(C)[C@@H](C(C)C)C(=O)N1C [Compound C51] (cyclo([MeBmt][Abu][Sar][NMeT]V[NMeL]L[dA][NMeL][NMeL][NMeV])),3.38,< 2000,96.62
C/C=C/C[C@@H](C)[C@@H](O)[C@H]1C(=O)N[C@@H](CC)C(=O)N(C)CC(=O)N(C)[C@@H](Cc2ccc(O)cc2)C(=O)N[C@@H](C(C)C)C(=O)N(C)[C@@H](CC(C)C)C(=O)N[C@@H](CC(C)C)C(=O)N[C@H](C)C(=O)N(C)[C@@H](CC(C)C)C(=O)N(C)[C@@H](CC(C)C)C(=O)N(C)[C@@H](C(C)C)C(=O)N1C [Compound C52] (cyclo([MeBmt][Abu][Sar][NMeY]V[NMeL]L[dA][NMeL][NMeL][NMeV])),7.40,< 2000,92.60
C/C=C/C[C@@H](C)[C@@H](O)[C@H]1C(=O)N[C@@H](CC)C(=O)N(C)CC(=O)N(C)[C@@H](C(C)C)C(=O)N[C@@H](C(C)C)C(=O)N(C)[C@@H](CC(C)C)C(=O)N[C@@H](CC(C)C)C(=O)N[C@H](C)C(=O)N(C)[C@@H](CC(C)C)C(=O)N(C)[C@@H](CC(C)C)C(=O)N(C)[C@@H](C(C)C)C(=O)N1C [Compound C53] (cyclo([MeBmt][Abu][Sar][NMeV]V[NMeL]L[dA][NMeL][NMeL][NMeV])),−0.01,< 2000,100.01
C/C=C/C[C@@H](C)[C@@H](O)[C@H]1C(=O)N[C@@H](CC)C(=O)N(C)CC(=O)N(C)[C@@H](CCC)C(=O)N[C@@H](C(C)C)C(=O)N(C)[C@@H](CC(C)C)C(=O)N[C@@H](CC(C)C)C(=O)N[C@H](C)C(=O)N(C)[C@@H](CC(C)C)C(=O)N(C)[C@@H](CC(C)C)C(=O)N(C)[C@@H](C(C)C)C(=O)N1C [Compound C54] (cyclo([MeBmt][Abu][Sar][NMeNva]V[NMeL]L[dA][NMeL][NMeL][NMeV])),0.90,< 2000,99.10
C/C=C/C[C@@H](C)[C@@H](O)[C@H]1C(=O)N[C@@H](CC)C(=O)N(C)CC(=O)N(C)[C@H](C(C)C)C(=O)N[C@@H](C(C)C)C(=O)N(C)[C@@H](CC(C)C)C(=O)N[C@@H](CC(C)C)C(=O)N[C@H](C)C(=O)N(C)[C@@H](CC(C)C)C(=O)N(C)[C@@H](CC(C)C)C(=O)N(C)[C@@H](C(C)C)C(=O)N1C [Compound C55] (cyclo([MeBmt][Abu][Sar][dNMeV]V[NMeL]L[dA][NMeL][NMeL][NMeV])),32.88,< 2000,67.12
C/C=C/C[C@@H](C)[C@@H](O)[C@H]1C(=O)N[C@@H](CC)C(=O)N(C)CC(=O)N(C)[C@@H](CCCC)C(=O)N[C@@H](C(C)C)C(=O)N(C)[C@@H](CC(C)C)C(=O)N[C@@H](CC(C)C)C(=O)N[C@H](C)C(=O)N(C)[C@@H](CC(C)C)C(=O)N(C)[C@@H](CC(C)C)C(=O)N(C)[C@@H](C(C)C)C(=O)N1C [Compound C56],2.44,< 2000,97.56
C/C=C/C[C@@H](C)[C@@H](O)[C@H]1C(=O)N[C@@H](CC)C(=O)N(C)CC(=O)N(C)[C@@H]([C@@H](C)CC)C(=O)N[C@@H](CC(C)C)C(=O)N(C)[C@@H](CC(C)C)C(=O)N[C@@H](CC(C)C)C(=O)N[C@H](C)C(=O)N(C)[C@@H](CC(C)C)C(=O)N(C)[C@@H](CC(C)C)C(=O)N(C)[C@@H](C(C)C)C(=O)N1C [Compound C57] (cyclo([MeBmt][Abu][Sar][NMeI]L[NMeL]L[dA][NMeL][NMeL][NMeV])),0.15,< 2000,99.85
C/C=C/C[C@@H](C)[C@@H](O)[C@H]1C(=O)N[C@@H](CC)C(=O)N(C)CC(=O)N(C)[C@@H](C)C(=O)N[C@@H](CC(C)C)C(=O)N(C)[C@@H](CC(C)C)C(=O)N[C@@H](CC(C)C)C(=O)N[C@H](C)C(=O)N(C)[C@@H](CC(C)C)C(=O)N(C)[C@@H](CC(C)C)C(=O)N(C)[C@@H](C(C)C)C(=O)N1C [Compound C58] (cyclo([MeBmt][Abu][Sar][NMeA]L[NMeL]L[dA][NMeL][NMeL][NMeV])),3.28,< 2000,96.72
C/C=C/C[C@@H](C)[C@@H](O)[C@H]1C(=O)N[C@@H](CC)C(=O)N(C)CC(=O)N(C)[C@H](C)C(=O)N[C@@H](CC(C)C)C(=O)N(C)[C@@H](CC(C)C)C(=O)N[C@@H](CC(C)C)C(=O)N[C@H](C)C(=O)N(C)[C@@H](CC(C)C)C(=O)N(C)[C@@H](CC(C)C)C(=O)N(C)[C@@H](C(C)C)C(=O)N1C [Compound C59] (cyclo([MeBmt][Abu][Sar][dNMeA]L[NMeL]L[dA][NMeL][NMeL][NMeV])),11.76,< 2000,88.24
